In patent US11219623B2, “Inflammasome inhibition for the treatment of Parkinson's disease, Alzheimer's disease and multiple sclerosis” (University of Kentucky Research Foundation, priority 2015, dated 2022):
“Also recorded” adds a separate entry of the source.

Experiments:
[1] = system: IL-1 beta; experiment: LPS/ATP-induced IL-1 beta secretion, mouse bone marrow-derived macrophages; type: cell-based; details: primary mouse bone marrow-derived macrophages
Excerpt: To determine whether LPS/ATP-induced inflammasome activation can be inhibited without RT inhibition, the present inventors utilized thymidine kinase-deficient (Raji/TK^−) and -expressing (Raji/TK^+) cells (Balzarini et al., 1989).

[2] = system: mitochondrial reactive oxygen species (mtROS); experiment: Mitochondrial ROS caused by Alu expression, MitoSox assay, primary human RPE cells; type: cell-based
Procedure: After 15 hours cells were co-stained for mtROS (red) and for cell count, nuclei (blue; Hoechst DNA stain).
In FIG. 54, mitochondrial reactive oxygen species (ROS) were visualized with MitoSox (Red) and cell nuclei with Hoechst (Blue).

[3] = system: IL-1 beta mRNA; experiment: IL-1beta priming (mRNA) induced by Alu RNA, primary human RPE cells; type: cell-based; details: 100 uM; 24 hours; normalized to 18S RNA
Procedure: FIG. 14 illustrates that Alu RNA transfection increases IL-1 beta mRNA levels in primary human RPE cells at 24 hours, an event termed “priming”, (Y-axis) compared to mock (transfection reagent alone).

[4] = system: Caspase-1; experiment: Alu RNA-induced Caspase-1 activation, western blot, primary human RPE cells; type: cell-based
Excerpt: The bottom row in FIG. 5 is a vinculin loading control.

[5] = system: wild-type mice; experiment: Alu RNA-induced RPE degeneration, mouse model of dry AMD; details: co-delivered to the vitreous humor; one week after delivery
[6] = target: T1, mouse P2X7 receptor (Mus musculus, UniProt Q9Z1M0); experiment: P2X7 cation channel function, patch clamp, HEK293 cells expressing mouse P2X7; type: cell-based; details: mouse P2X7 in HEK293
T1 construct: expressed in transfected cells; host or cells: HEK293 cells

[7] = system: primary human RPE cells; experiment: Extracellular potassium after Alu RNA transfection, potassium-dependent pyruvate kinase assay; type: cell-based; details: 6 hours
Procedure: For FIG. 18, potassium levels were determined in cell culture supernatants spectrophotometrically using a potassium-dependent pyruvate kinase assay.

[8] = system: Caspase-1; experiment: LPS/ATP-induced Caspase-1 activation, mouse bone marrow-derived macrophages, western blot
[9] = system: Caspase-1; experiment: iGLuc luminescence assay of ATP-induced Caspase-1 activation in J774 iGLuc cells; type: cell-based, mouse
Procedure: Caspase-1 is the enzyme at the core of the inflammasome complex and is an important danger response signal and mediator of RPE cell death in AMD. […] Importantly, there was some difference between individual compounds in terms of the dose response curve, emphasizing the need to test each compound (with unique R group(s)) individually.
To obtain the data set forth in FIGS. 64-73, an iGLuc assay was conducted (modified from Bartok et al. iGLuc: a luciferase-based inflammasome and protease activity reporter. Nature Methods 2013; 10(2):147-54). Briefly, 100,000 iGLuc cells per well were plated in a 96 well plate overnight. The next morning, media is aspirated from the plate and replaced with 75 μL of serum free DMEM with drugs (NRTIs or modified NRTIs) for 30 min. After 30 minutes of drug exposure, 20 mM ATP (25 μL) is added for a final concentration of 5 mM. 50 μL of media from each well is collected and 50 μL of coelenterazine 4.4 μM is added to each sample, and luminescence is read immediately.

[10] = system: wild-type mice; experiment: pAlu-induced RPE degeneration, mouse model of dry AMD; type: in vivo; details: daily oral administration
Procedure: Mouse studies were conducted to study treatment with NRTIs or derivatives.

[11] = system: human LINE-1 retrotransposon; experiment: EGFP cell culture L1 retrotransposition assay in HeLa cells; type: cell-based; details: 7 days after transfection, flow cytometry
Procedure: These findings pave way for the rational re-design and improvement of nucleoside analogs as novel therapeutics. The enhanced green fluorescent protein (EGFP) cell culture L1 retrotransposition assay was performed in HeLa cells. […] Transfected cells were selected in puromycin. 7 days after transfection, cells that underwent retrotransposition (EGFP-positive) were assayed by flow cytometry. Cells were gated based on background fluorescence of plasmid JM111, which has two point mutations in L1-ORF1 that abolish retrotransposition. Data are normalized with RPS set to 1.

[12] = system: primary human RPE cells; experiment: ATP release induced by Alu RNA, ATP-dependent luciferase assay, primary human RPE cells; type: cell-based; details: cell culture supernatant
Excerpt: Alu RNA (Kerur et al., 2013) and LPS/ATP (Qu et al., 2011) activate the inflammasome via the ATP receptor P2X7.
(FIG. 16) Primary human RPE cells treated with Alu RNA for the times indicated release ATP. […] ATP was detected using an ATP-dependent luciferase assay.

T1 sequence (Q9Z1M0 whole entry): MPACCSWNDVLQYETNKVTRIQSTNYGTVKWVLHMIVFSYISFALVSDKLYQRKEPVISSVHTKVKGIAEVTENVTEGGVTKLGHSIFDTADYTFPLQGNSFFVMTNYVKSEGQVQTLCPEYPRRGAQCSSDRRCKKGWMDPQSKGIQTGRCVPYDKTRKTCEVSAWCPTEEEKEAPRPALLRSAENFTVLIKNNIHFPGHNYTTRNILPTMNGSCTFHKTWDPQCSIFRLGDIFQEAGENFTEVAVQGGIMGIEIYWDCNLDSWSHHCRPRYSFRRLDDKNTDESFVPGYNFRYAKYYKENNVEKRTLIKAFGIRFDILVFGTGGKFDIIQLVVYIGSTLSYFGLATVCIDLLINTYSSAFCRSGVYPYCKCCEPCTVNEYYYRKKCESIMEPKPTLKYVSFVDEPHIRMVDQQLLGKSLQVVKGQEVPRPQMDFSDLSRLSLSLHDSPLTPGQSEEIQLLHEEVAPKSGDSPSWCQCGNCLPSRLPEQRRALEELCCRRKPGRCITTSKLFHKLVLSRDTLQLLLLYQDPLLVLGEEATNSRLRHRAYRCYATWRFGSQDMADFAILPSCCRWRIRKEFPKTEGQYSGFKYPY

## Cc1cn([C@H]2C=C[C@@H](CO)O2)c(=O)[nH]c1=O [d4T, 2′3′ dideoxythymidine]
[1]
  secretion of mature IL-1 beta upon LPS/ATP: blocks secretion of mature IL-1 beta
[2]
  mitochondrial ROS caused by Alu expression (pAluA): reduces mitochondrial ROS; also recorded: prevents pAlu-induced mitochondrial ROS generation
[3]
  IL-1 beta mRNA levels (priming) induced by Alu RNA: reduces IL-1beta priming
[4]; 100 uM, 24 hours after Alu administration
  Alu RNA-induced Caspase-1 maturation: blocked
[4]; concentration not given
  Alu RNA-induced Caspase-1 activation/cleavage: prevents Caspase 1 cleavage
[5]
  Alu RNA-induced RPE cell death: prevents Alu RNA-induced RPE cell death in a dose-dependent manner
[6]
  P2X7 cation channel function: did not significantly modulate P2X7 cation channel function
[7]
  extracellular potassium levels after Alu RNA transfection: reduces extracellular potassium levels
[8]; 100 uM, cell culture supernatants
  Caspase-1 activation (active p20 band) induced by LPS/ATP: inhibit Caspase-1 activation
[8]; concentration not given
  LPS/ATP-induced Caspase-1 maturation: inhibited LPS/ATP-induced Caspase-1 maturation
[9]; ATP 5 mM, drug 1 nM-100 μM, N=3
  Caspase-1 cleavage (luminescence): reduces Caspase-1 cleavage in a dose-dependent fashion
[9]; ATP (5 mM), mouse J774 iGLuc cells, FIGS. 70-73
  reduction of inflammasome activation: about 35%
[10]
  pAlu-induced RPE degeneration: blocked RPE degeneration
[11]
  L1 retrotransposition (EGFP-positive cells): blocked L1 retrotransposition
[12]
  ATP release induced by Alu RNA: does not block release of ATP; also recorded: did not affect ATP release
